Experimental data taken from patent US12612388B2, “Receptor-interacting protein 1 inhibitors including piperazine heterocyclic amide ureas” (SIRONAX LTD., priority 2020, dated 2026).

Tested on: HT-29 cells
Assay: Cellular RIP1 inhibitory activity: necroptosis of HT-29 cells induced by TNF-α/SMAC mimetic/zVAD-FMK, CellTiter-Glo viability
Format: cell-based
Settings: Homo sapiens; HT-29 cells; TNF-α 10 ng/ml, SMAC mimetic 6 μM, zVAD-FMK 10 μM; 20 hours; geometric mean, 10 points, duplicates; read-out: EC50 (Cell activity; Necrosis or Necroptosis Inhibitory Activity)
Summary of the method: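 HT-29 cells (~5,000/well) in FBS-free McCoy's 5A were driven into necroptosis with TNF-α (10 ng/ml), SMAC mimetic (6 μM) and zVAD-FMK (10 μM) alongside 10-point 1:3 compound dilutions for 20 h at 37 °C. Viability measured by CellTiter-Glo luminescence; geometric mean EC50 from duplicate dose-responses.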

`N#Cc1cc(F)cc([C@@H]2CC=NN2C(=O)N2CCN(c3ncc(F)c(C(=O)N4CC(C#N)C4)n3)CC2)c1` [Compound 54, (S)-1-(2-(4-(5-(3-cyano-5-fluorophenyl)-4,5-dihydro-1H-pyrazole-1-carbonyl)piperazin-1-yl)-5-fluoropyrimidine-4-carbonyl)azetidine-3-carbonitrile] gave an EC50 of 0.0001 to 0.1 µM.

Work on `C=C1CN(C(=O)c2nc(N3CCN(C(=O)N4N=CC[C@H]4c4cc(F)cc(F)c4)CC3)ncc2F)C1` [Compound 55, (S)-(5-(3,5-difluorophenyl)-4,5-dihydro-1H-pyrazol-1-yl)(4-(5-fluoro-4-(3-methyleneazetidine-1-carbonyl)pyrimidin-2-yl)piperazin-1-yl)methanone] yielded an EC50 of 0.0001 to 0.1 µM.

In the case of `CC1CN(C(=O)c2nc(N3CCN(C(=O)N4N=CC[C@H]4c4cc(F)cc(F)c4)CC3)ncc2F)C1` [Compound 56, (S)-(5-(3,5-difluorophenyl)-4,5-dihydro-1H-pyrazol-1-yl)(4-(5-fluoro-4-(3-methylazetidine-1-carbonyl)pyrimidin-2-yl)piperazin-1-yl)methanone], the EC50 is reported as 0.0001 to 0.1 µM.

In the case of `N#CC=C1CN(C(=O)c2nc(N3CCN(C(=O)N4N=CC[C@H]4c4cc(F)cc(F)c4)CC3)ncc2F)C1` [Compound 57, (S)-2-(1-(2-(4-(5-(3,5-difluorophenyl)-4,5-dihydro-1H-pyrazole-1-carbonyl)piperazin-1-yl)-5-fluoropyrimidine-4-carbonyl)azetidin-3-ylidene)acetonitrile], the EC50 is reported as 0.0001 to 0.1 µM.

`N#CCC1CN(C(=O)c2nc(N3CCN(C(=O)N4N=CC[C@H]4c4cc(F)cc(F)c4)CC3)ncc2F)C1` [Compound 58, (S)-2-(1-(2-(4-(5-(3,5-difluorophenyl)-4,5-dihydro-1H-pyrazole-1-carbonyl)piperazin-1-yl)-5-fluoropyrimidine-4-carbonyl)azetidin-3-yl)acetonitrile] showed an EC50 of 0.0001 to 0.1 µM.

`N#Cc1cc(F)cc([C@@H]2CC=NN2C(=O)N2CCN(c3ncc(F)c(C(=O)N4CC(OCC5CC5)C4)n3)CC2)c1` [Compound 59, (S)-3-(1-(4-(4-(3-(cyclopropylmethoxy)azetidine-1-carbonyl)-5-fluoropyrimidin-2-yl)piperazine-1-carbonyl)-4,5-dihydro-1H-pyrazol-5-yl)-5-fluorobenzo nitrile] gave an EC50 of 0.0001 to 0.1 µM.

`O=C(c1nc(N2CCN(C(=O)N3N=CC[C@H]3c3cc(F)cc(F)c3)CC2)ncc1F)N1CC(OC(F)(F)F)C1` [Compound 60, (S)-(5-(3,5-difluorophenyl)-4,5-dihydro-1H-pyrazol-1-yl)(4-(5-fluoro-4-(3-(trifluoromethoxy)azetidine-1-carbonyl)pyrimidin-2-yl)piperazin-1-yl)methanone] showed an EC50 of 0.0001 to 0.1 µM.

`O=C(c1nc(N2CCN(C(=O)N3N=CC[C@H]3c3cc(F)cc(F)c3)CC2)ncc1F)N1CC=CC1` [Compound 61, (S)-(5-(3,5-difluorophenyl)-4,5-dihydro-1H-pyrazol-1-yl)(4-(4-(2,5-dihydro-1H-pyrrole-1-carbonyl)-5-fluoropyrimidin-2-yl)piperazin-1-yl)methanone] showed an EC50 of 0.0001 to 0.1 µM.

Work on `COc1cnc(N2CCN(C(=O)N3N=CC[C@H]3c3cc(F)cc(F)c3)CC2)nc1C(N)=O` [Compound 62, (S)-2-(4-(5-(3,5-difluorophenyl)-4,5-dihydro-1H-pyrazole-1-carbonyl)piperazin-1-yl)-5-methoxypyrimidine-4-carboxamide] yielded an EC50 of 0.1 to 1 µM.

For `COC1CN(C(=O)c2nc(N3CCN(C(=O)N4N=CC[C@H]4c4cc(F)cc(C#N)c4)CC3)ncc2Cl)C1` [Compound 63, (S)-3-(1-(4-(5-chloro-4-(3-methoxyazetidine-1-carbonyl)pyrimidin-2-yl)piperazin-1-carbonyl)-4,5-dihydro-1H-pyrazol-5-yl)-5-fluorobenzonitrile], the EC50 was 0.0001 to 0.1 µM.

`COC1CN(C(=O)c2nc(N3CCN(C(=O)N4N=CC[C@H]4c4cncc(F)c4)CC3)ncc2Cl)C1` [Compound 64, (S)-(5-chloro-2-(4-(5-(5-fluoropyridin-3-yl)-4,5-dihydro-1H-pyrazole-1-carbonyl)piperazin-1-yl)pyrimidin-4-yl)(3-methoxyazetidin-1-yl)methanone] showed an EC50 of 0.1 to 1 µM.

`COC1CN(C(=O)c2nc(N3CCN(C(=O)N4N=CCC4c4cncc(Cl)c4)CC3)ncc2F)C1` (stereo not shown) [Compound 66, (5-(5-chloropyridin-3-yl)-4,5-dihydro-1H-pyrazol-1-yl)(4-(5-fluoro-4-(3-methoxyazetidine-1-carbonyl)pyrimidin-2-yl)piperazin-1-yl)methanone] was tested, and the EC50 was 0.0001 to 0.1 µM.

`NC(=O)c1cc(N2CCN(C(=O)N3N=CC[C@H]3c3cc(F)cc(F)c3)CC2)c(F)cn1` [Compound 67, (S)-4-(4-(5-(3,5-difluorophenyl)-4,5-dihydro-1H-pyrazole-1-carbonyl)piperazin-1-yl)-5-fluoropicolinamide] showed an EC50 of 0.1 to 1 µM.
